One experiment addresses T1, wild-type human ALK (Homo sapiens, UniProt Q9UM73).
T1 construct: The cytoplasmic domain (amino acid 1058-1620) of wild-type human ALK protein; GST (N); purchased Carna Biosciences, Inc (Japan)
In words: ALK kinase activity, Lance TR-FRET assay (wild-type). The note with it: Table 2, ALK enzyme; read-out: Inhibitory activity (nM) ALK. It counts as biochemical. The procedure: Mutated ALK proteins were expressed in SF9 insect cells with N-terminal tags cleaved after purification. Kinase activities of all enzymes were assessed using a Lance TR-FRET assay kit from Perkin Elmer Life Sciences (Waltham, Mass.). 2.5 μL of compound solution and 5 μL of protein solution were added into a black low volume 384 well microtiter plate which was incubated for 30 minutes with gentle shaking at room temperature, followed by adding 2.5 μL of fluorescently labeled peptide substrate and ATP mixture solution. The kinase reaction was performed in 50 mM HEPES (pH 7.5) with 1 mM EGTA, 1 mM MgCl2, and 2 mM DTT, 0.01% Tween-20 added right before the assay. […] The final mixture was incubated in the dark for 1 hour before the plate was read on a Tecan Infinite M-1000 multi-mode plate reader (Tecan, Durham N.C.) with an excitation wavelength of 320 nm.
Background: In TR-FRET formats the signal depends on donor and acceptor labels being close together.

A further experiment concerns Kappas-299 (NPM-ALK). Briefly: Cell growth inhibition assay (WST-8), Kappas-299. The note with it: read-out: Kappas-299 (nM) (NPM-ALK), 50% of cell growth inhibition (IC50), Kappas-299 cells, WST-8, versus DMSO control. It counts as cell-based. As to the method:
(§1) All cell lines were cultured as recommended. For cell growth inhibition assay, cells were treated with different concentrations of the tested compounds, diluted from stock to culture media containing a 0.2% DMSO as the final concentration. Cell viability was determined using the WST-8 cell proliferation assay kit (Dojindo Molecular Technologies) according to manufacture's instructions. Three independent experiments in triplicates were performed.
For orientation: Tetrazolium assays rely on reduction of a dye to a coloured formazan, in cell work by metabolically active cells.

The test system of another experiment is H3122 (EML4-ALK). In words: Cell growth inhibition assay (WST-8), H3122. It counts as cell-based. The note with it: Homo sapiens, NCI-H3122, read-out: H3122 (nM) (EML4-ALK), 50% of cell growth inhibition (IC50); H3122 cells, WST-8, versus DMSO control. As to the method: as §1
Another experiment relates to KARPAS 299 xenograft. In words: KARPAS 299 xenograft model in mice, in vivo antitumor efficacy. The note with it: SCID mice, given orally, once daily for 3 weeks, FIG. 1. The procedure: Tumor cells for xenografts were washed twice in PBS, and re-suspended in an ice cold mixture of 1:1 PBS and Matrigel (BD Biosciences, Invitrogen Corp.) for a final Matrigel protein concentration of 5 mg/ml. Cells at 5×10^6 cells in 0.1 ml were injected subcutaneously (s.c.) into the flank region of each mouse.
The size of tumors growing in the mice was measured in two dimensions using calipers. Tumor volume (mm^3)=(A×B^2)/2 where A and B are the tumor length and width (in mm), respectively. During treatment, tumor volume and body weight were measured three times a week. After the treatment was stopped, tumor volume and body weight was measured at least once a week.
Tumors were not allowed to exceed 10% of the animal's total body weight. If an animal had two or more tumors the total weight of all tumors were not allowed to exceed 10% of the animal's total body weight. At the end of the experimental period or when tumor size approached 10% of the total body weight, the animal was euthanized.
Mice with tumors within acceptable size range were randomized into treatment groups of 7 mice. Drug was given orally, once daily for 3 weeks. The Control group received vehicle alone.

SMILES strings stand for the structures.

T1 sequence (Q9UM73 1058-1620): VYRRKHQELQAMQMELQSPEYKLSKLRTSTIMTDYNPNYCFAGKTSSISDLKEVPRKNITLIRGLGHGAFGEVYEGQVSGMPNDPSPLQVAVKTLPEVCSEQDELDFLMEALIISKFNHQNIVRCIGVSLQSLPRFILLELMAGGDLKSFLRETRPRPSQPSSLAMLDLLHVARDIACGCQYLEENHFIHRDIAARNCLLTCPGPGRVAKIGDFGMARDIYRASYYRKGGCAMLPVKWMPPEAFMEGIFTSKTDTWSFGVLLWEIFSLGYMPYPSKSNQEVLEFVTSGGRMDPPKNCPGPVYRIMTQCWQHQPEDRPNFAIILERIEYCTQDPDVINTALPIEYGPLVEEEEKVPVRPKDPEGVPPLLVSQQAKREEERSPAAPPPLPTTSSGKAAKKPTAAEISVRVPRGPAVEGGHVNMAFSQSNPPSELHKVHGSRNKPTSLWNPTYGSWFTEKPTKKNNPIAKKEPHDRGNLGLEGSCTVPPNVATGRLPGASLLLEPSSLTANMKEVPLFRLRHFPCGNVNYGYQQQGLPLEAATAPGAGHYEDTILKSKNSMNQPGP

As to `COc1cc2c(=O)c3c4ccc(C#N)cc4[nH]c3n(C(C)C)c2c(F)c1C1=CCNCC1` [Cpd. No. 16, 4-fluoro-5-isopropyl-2-methoxy-11-oxo-3-(1,2,3,6-tetrahydropyridin-4-yl)-6,11-dihydro-5H-indolo[2,3-b]quinoline-8-carbonitrile], the IC50 was 0.85 nM on wild-type human ALK and 167 nM with Kappas-299 (NPM-ALK).

On to `COc1cc2c(=O)c3c4ccc(C#N)cc4[nH]c3n(C(C)C)c2c(F)c1C1=C[C@@H](C)N(C)[C@@H](C)C1` [Cpd. No. 19, 4-fluoro-5-isopropyl-2-methoxy-11-oxo-3-((2S,6R)-1,2,6-trimethyl-1,2,3,6-tetrahydropyridin-4-yl)-6,11-dihydro-5H-indolo[2,3-b]quinoline-8-carbonitrile], for which the IC50 was 0.36 nM on wild-type human ALK, 16 nM in the experiment with Kappas-299 (NPM-ALK) and 20 nM in the experiment on H3122 (EML4-ALK). The “tumor growth in the KARPAS 299 xenograft model” value (shortened to “tumor growth”) in the experiment on KARPAS 299 xenograft is “inhibit tumor growth”.

Take `CCN1[C@H](C)CN(c2c(OC)cc3c(=O)c4c5ccc(C#N)cc5[nH]c4n(C(C)C)c3c2F)C[C@@H]1C` [Cpd. No. 9, 3-((3R,5S)-4-ethyl-3,5-dimethylpiperazin-1-yl)-4-fluoro-5-isopropyl-2-methoxy-11-oxo-6,11-dihydro-5H-indolo[2,3-b]quinoline-8-carbonitrile]: the IC50 in the experiment with Kappas-299 (NPM-ALK) is 85 nM; in the experiment on H3122 (EML4-ALK) it was 27 nM.

On to `COc1cc2c(=O)c3c4ccc(C#N)cc4[nH]c3n(C(C)C)c2c(F)c1C1=CCN(C2CCOCC2)CC1` [Cpd. No. 20, 4-fluoro-5-isopropyl-2-methoxy-11-oxo-3-(1-(tetrahydro-2H-pyran-4-yl)-1,2,3,6-tetrahydropyridin-4-yl)-6,11-dihydro-5H-indolo[2,3-b]quinoline-8-carbonitrile], for which the IC50 at wild-type human ALK came to 1.4 nM; in the experiment with Kappas-299 (NPM-ALK), 38 nM; in the experiment with H3122 (EML4-ALK), 30 nM. In addition, the “tumor growth” value with KARPAS 299 xenograft is given as “inhibit tumor growth”.

Take `COc1cc2c(=O)c3c4ccc(C#N)cc4[nH]c3n(C(C)C)c2c(F)c1C1=C[C@@H](C)N[C@@H](C)C1` [Cpd. No. 18, 3-((2S,6R)-2,6-dimethyl-1,2,3,6-tetrahydropyridin-4-yl)-4-fluoro-5-isopropyl-2-methoxy-11-oxo-6,11-dihydro-5H-indolo[2,3-b]quinoline-8-carbonitrile]: the IC50 at wild-type human ALK was 0.5 nM; with Kappas-299 (NPM-ALK), 16 nM; with H3122 (EML4-ALK) it was 18 nM.

Turning to `COc1cc2c(=O)c3c4ccc(C#N)cc4[nH]c3n(C(C)C)c2c(F)c1C1=CCN(C)CC1` [Cpd. No. 17, 4-fluoro-5-isopropyl-2-methoxy-3-(1-methyl-1,2,3,6-tetrahydropyridin-4-yl)-11-oxo-6,11-dihydro-5H-indolo[2,3-b]quinoline-8-carbonitrile], the IC50 at wild-type human ALK is 0.75 nM; in the experiment on Kappas-299 (NPM-ALK), 60 nM.

With `COc1cc2c(=O)c3c4ccc(C#N)cc4[nH]c3n(C(C)C)c2c(F)c1C1=CC(C)(C)N(C)C(C)(C)C1` [Cpd. No. 12, 4-fluoro-5-isopropyl-2-methoxy-11-oxo-3-(1,2,2,6,6-pentamethyl-1,2,3,6-tetrahydropyridin-4-yl)-6,11-dihydro-5H-indolo[2,3-b]quinoline-8-carbonitrile], the IC50 at wild-type human ALK was determined as 0.24 nM; with Kappas-299 (NPM-ALK), 9.7 nM. Moreover, in the experiment with KARPAS 299 xenograft, the “tumor growth” value is “inhibit tumor growth”.

On to `COc1cc2c(=O)c3c4ccc(C#N)cc4[nH]c3n(C(C)C)c2c(F)c1C1CC2CCC(C1)N2C` (stereo not shown) [Cpd. No. 10, 4-fluoro-5-isopropyl-2-methoxy-3-(8-methyl-8-azabicyclo[3.2.1]octan-3-yl)-11-oxo-6,11-dihydro-5H-indolo[2,3-b]quinoline-8-carbonitrile], for which the IC50 on wild-type human ALK was found to be 0.37 nM; with Kappas-299 (NPM-ALK), 69 nM.

These data come from patent US10781208B2, “5,6-dihydro-11H-indolo[2,3-B]quinolin-11-ones as alk inhibitors” (THE REGENTS OF THE UNIVERSITY OF MICHIGAN, priority 2016, dated 2020).
